Experimental data from US9145351B2, “Azole derivatives, methods for producing the same, intermediate thereof, agro-horticultural agents” (KUREHA CORPORATION, priority 2009, dated 2015).

Tests used:
Type in all cases: cell-based
Conditions in all cases: plate medium
Pyricularia oryzae = experiment: microbe, parasite or virus in culture
[1] = test system: Pseudocercoporella herpotrichoides; experiment: Plate medium fungicidal assay, wheat eye spot P.h (Experimental Example 5)
Outline: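 Compound in DMSO mixed into PDA agar for plates at 50 mg/L and 5 mg/L, inoculated with a 4 mm mycelial plug of Pseudocercosporella herpotrichoides. Colony diameter compared with untreated plates: % mycelial growth inhibition = 100(dc−dt)/dc, scored on a 5-grade scale.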

Sclerotinia sclerotiorum = experiment: Plate medium fungicidal assay, Sclerotinia rot S.s (Experimental Example 5)
Outline: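 A 4 mm mycelial plug was placed on PDA plates containing compound at 50 mg/L and 5 mg/L, added from DMSO solution. Colony diameters were compared with untreated plates, % mycelial growth inhibition was R=100(dc−dt)/dc, and scores fell into 5 grades.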

Ustilago nuda = experiment: Plate medium fungicidal assay, barley loose smut U.n (Experimental Example 5)
Outline: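 Compounds in DMSO were mixed into molten PDA to give plates at 50 mg/L and 5 mg/L, then inoculated with a 4 mm mycelial plug. Colony diameter was compared with untreated plates as % inhibition = 100(dc−dt)/dc, scored on a 5-grade scale.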

Fusarium graminearum = experiment: microbe, parasite or virus in culture
Fusarium oxysporum = experiment: Plate medium fungicidal assay, cucumber fusarium wilt F.c (Experimental Example 5)
Outline: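 Compound in DMSO mixed into PDA agar to give plates at 50 mg/L and 5 mg/L, then inoculated with 4 mm mycelial plug. Colony diameter compared with untreated plate as % mycelial growth inhibition, R=100(dc−dt)/dc, then scored on a 5-grade scale.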

Phaeosphaeria nodorum = experiment: Plate medium fungicidal assay, wheat Septoria nodorum blotch P.n (Experimental Example 5)
Outline: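 Compound in DMSO mixed into PDA plate medium at 50 mg/L and 5 mg/L; 4 mm mycelial plug of pre-cultured fungus inoculated onto plate. Colony diameter compared with untreated plate, % mycelial growth inhibition = 100(dc−dt)/dc, scored in 5 grades.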

SMILES: C[C@]1(CCl)CC[C@H](Cc2cccc(Cl)c2)[C@]1(O)Cn1cncn1 (relative stereo) [Compound I-374]
- Growth inhibition grade, P.o (Pyricularia oryzae; 5 mg/L): 5 (% Mycerial growth inhibition of 80% or higher)
- Growth inhibition grade, P.o (Pyricularia oryzae; 50 mg/L): 5 (% Mycerial growth inhibition of 80% or higher)
- Growth inhibition grade, P.h ([1]; 5 mg/L): 5 (% Mycerial growth inhibition of 80% or higher)
- Growth inhibition grade, P.h ([1]; 50 mg/L): 5 (% Mycerial growth inhibition of 80% or higher)
- Growth inhibition grade, S.s (Sclerotinia sclerotiorum; 5 mg/L): 5 (% Mycerial growth inhibition of 80% or higher)
- Growth inhibition grade, S.s (Sclerotinia sclerotiorum; 50 mg/L): 5 (% Mycerial growth inhibition of 80% or higher)
- Growth inhibition grade, U.n (Ustilago nuda; 5 mg/L): 4 (% Mycerial growth inhibition of less than 80 to 60% or higher)
- Growth inhibition grade, U.n (Ustilago nuda; 50 mg/L): 5 (% Mycerial growth inhibition of 80% or higher)
- Growth inhibition grade, F.g (Fusarium graminearum; 5 mg/L): 5 (% Mycerial growth inhibition of 80% or higher)
- Growth inhibition grade, F.g (Fusarium graminearum; 50 mg/L): 5 (% Mycerial growth inhibition of 80% or higher)
- Growth inhibition grade, F.c (Fusarium oxysporum; 5 mg/L): 5 (% Mycerial growth inhibition of 80% or higher)
- Growth inhibition grade, F.c (Fusarium oxysporum; 50 mg/L): 5 (% Mycerial growth inhibition of 80% or higher)
- Growth inhibition grade, P.n (Phaeosphaeria nodorum; 5 mg/L): 5 (% Mycerial growth inhibition of 80% or higher)
- Growth inhibition grade, P.n (Phaeosphaeria nodorum; 50 mg/L): 5 (% Mycerial growth inhibition of 80% or higher)
